The values that follow come from patent publication US20220279826A1, “OFF-FLAVOR SUPPRESSING AGENT” (AJINOMOTO CO., INC., priority 2019, published 2022).

Assay [1] in a line: Sensory evaluation of off-taste suppressing effect in 0.8 wt % potassium chloride aqueous solution (Experimental Examples 1 and 2). On the procedure: Each compound shown in the following Tables 1 to 13 was added to a 0.8 wt % potassium chloride aqueous solution at the concentration (addition concentration) shown in the following Tables 1 to 13 to prepare each evaluation sample.
Based on the following evaluation criteria, a panel of two experts determined by consensus the intensity of off-tastes (bitter taste, metallic taste, harsh taste, astringent taste) derived from potassium chloride in each evaluation sample, by reference to each potassium chloride aqueous solution adjusted to 0.8 wt %, 0.75 wt %, 0.7 wt %, or 0.65 wt %.
−: intensity of the same level as potassium chloride aqueous solution with potassium chloride concentration of not less than 0.8 wt %
+: intensity of the same level as potassium chloride aqueous solution with potassium chloride concentration of not less than 0.75 wt % and less than 0.8 wt %
++: intensity of the same level as potassium chloride aqueous solution with potassium chloride concentration of not less than 0.7 wt % and less than 0.75 wt %
+++: intensity of the same level as potassium chloride aqueous solution with potassium chloride concentration of not less than 0.65 wt % and less than 0.7 wt %
Each compound shown in the following Table 14 was added to a 0.8 wt % potassium chloride aqueous solution at the concentration (addition concentration) shown in the following Table 14 to prepare each evaluation sample.

Assay [2] can be described thus: Sensory evaluation in Japanese noodle soup base solution with potassium chloride (0.2 g) (Experimental Example 5). The conditions noted are these: for off-taste suppressing effect: Japanese noodle soup base solution, potassium chloride 0.2 g; for intensity of off-tastes (bitter taste, metallic taste, harsh taste, astringent taste) derived from potassium chloride: base solution of Table 19. On the procedure:
Potassium chloride (0.2 g) was added to a commercially available Japanese noodle soup base (manufactured by Yamaki Co., Ltd.) (11.1 g), and dissolved by adding hot water (88.7 g) to prepare a base solution.
Each compound shown in the following Table 19 was added to the base solution prepared above so as to achieve the concentration (addition concentration) shown in the following Table 19 to prepare each evaluation sample.
Based on the following evaluation criteria, a panel of two experts determined by consensus the intensity of off-tastes (bitter taste, metallic taste, harsh taste, astringent taste) derived from potassium chloride in each evaluation sample, by reference to each potassium chloride aqueous solution adjusted to 0.2 wt %, 0.15 wt % or 0.1 wt %.

Where [3] appears, read: 0.8 wt % potassium chloride aqueous solution, addition concentration 100 weight ppb (12.5 weight ppm with respect to potassium chloride).
Where [4] appears, read: in words, potassium chloride aqueous solutions, Tables 1 to 14.
The mark [5] stands for this setting: potassium chloride aqueous solutions, Tables 1 to 14.
Where [6] appears, read: 0.8 wt % potassium chloride aqueous solution, addition concentration 1 weight ppb (0.125 weight ppm with respect to potassium chloride).
The mark [7] stands for this setting: 0.8 wt % potassium chloride aqueous solution, addition concentration 5 weight ppb (0.625 weight ppm with respect to potassium chloride).
Setting [8] is: 0.8 wt % potassium chloride aqueous solution, addition concentration 10 weight ppb (1.25 weight ppm with respect to potassium chloride).
Setting [9] is: 0.8 wt % potassium chloride aqueous solution, addition concentration 50 weight ppb (6.25 weight ppm with respect to potassium chloride).
Where [10] appears, read: 0.8 wt % potassium chloride aqueous solution, addition concentration 500 weight ppb (62.5 weight ppm with respect to potassium chloride).
Where [11] appears, read: 0.8 wt % potassium chloride aqueous solution, addition concentration 1000 weight ppb (125 weight ppm with respect to potassium chloride).

With `CCc1ccco1` [2-ethylfuran, reference compound], the off-taste suppressing effect result in assay [1] (setting [3]) is given as “− (intensity of the same level as potassium chloride aqueous solution with potassium chloride concentration of not less than 0.8 wt %)”; in assay [1] (setting [4]) it was “could not be confirmed”. Besides, the “intensity of off-tastes (bitter taste, metallic taste, harsh taste, astringent taste) derived from potassium chloride” value (shortened to “intensity of off-tastes”) in assay [1] (setting [5]) is reported as “did not show changes”.
The like results for `CCCCCc1ccco1` [2-pentylfuran, reference compound] were, in that order, “− (intensity of the same level as potassium chloride aqueous solution with potassium chloride concentration of not less than 0.8 wt %)”, “could not be confirmed” and “did not show changes”.
As to `CC(=O)c1cc(C)oc1C` [3-acetyl-2,5-dimethylfuran], the off-taste suppressing effect result is “+ (intensity of the same level as potassium chloride aqueous solution with potassium chloride concentration of not less than 0.75 wt % and less than 0.8 wt %)” in assay [1] (setting [6]); “++ (intensity of the same level as potassium chloride aqueous solution with potassium chloride concentration of not less than 0.7 wt % and less than 0.75 wt %)” in assay [1] (setting [7]); “+ (intensity of the same level as potassium chloride aqueous solution with potassium chloride concentration of not less than 0.75 wt % and less than 0.8 wt %)” in assay [1] (setting [8]); “+++ (intensity of the same level as potassium chloride aqueous solution with potassium chloride concentration of less than 0.1 wt %)” in assay [2] (addition concentration 5 weight ppb (2.5 weight ppm with respect to potassium chloride)). The “intensity of off-tastes” value in assay [1] (setting [5]) and in assay [2] was “decreased” throughout.
Turning to `CC(=O)OC1=C(C)OC(C)C1=O` (stereo not shown) [4-acetoxy-2,5-dimethyl-3(2H)-furanone], the off-taste suppressing effect entry in assay [1] (setting [9]) was “+ (intensity of the same level as potassium chloride aqueous solution with potassium chloride concentration of not less than 0.75 wt % and less than 0.8 wt %)”; in assay [1] (setting [3]), “++ (intensity of the same level as potassium chloride aqueous solution with potassium chloride concentration of not less than 0.7 wt % and less than 0.75 wt %)”; in assay [1] (setting [10]), “+ (intensity of the same level as potassium chloride aqueous solution with potassium chloride concentration of not less than 0.75 wt % and less than 0.8 wt %)”; in assay [2] (addition concentration 100 weight ppb (50 weight ppm with respect to potassium chloride)) it was “+ (intensity of the same level as potassium chloride aqueous solution with potassium chloride concentration of not less than 0.15 wt % and less than 0.2 wt %)”. The “intensity of off-tastes” value in assay [1] (setting [5]) and in assay [2] was “decreased” throughout.
With `CCC1OC(=O)C(O)=C1C` (stereo not shown) [5-ethyl-3-hydroxy-4-methyl-2(5H)-furanone, reference compound], the off-taste suppressing effect entry was “− (intensity of the same level as potassium chloride aqueous solution with potassium chloride concentration of not less than 0.8 wt %)” in assay [1] (setting [6]); “+ (intensity of the same level as potassium chloride aqueous solution with potassium chloride concentration of not less than 0.75 wt % and less than 0.8 wt %)” in assay [1] (setting [7]); “+ (intensity of the same level as potassium chloride aqueous solution with potassium chloride concentration of not less than 0.75 wt % and less than 0.8 wt %)” in assay [1] (setting [8]); “− (intensity of the same level as potassium chloride aqueous solution with potassium chloride concentration of not less than 0.8 wt %)” in assay [1] (setting [9]); “− (intensity of the same level as potassium chloride aqueous solution with potassium chloride concentration of not less than 0.8 wt %)” in assay [1] (setting [3]); “− (intensity of the same level as potassium chloride aqueous solution with potassium chloride concentration of not less than 0.8 wt %)” in assay [1] (setting [10]). The values for the off-taste suppressing effect entry in assay [1] (setting [11]) and in assay [1] (setting [4]) were “− (intensity of the same level as potassium chloride aqueous solution with potassium chloride concentration of not less than 0.8 wt %)” and “could be hardly confirmed”, respectively.
Take `CCC1=C(O)C(=O)C(C)O1` (stereo not shown) [5-ethyl-4-hydroxy-2-methyl-3(2H)-furanone, reference compound]: the off-taste suppressing effect entry is “− (intensity of the same level as potassium chloride aqueous solution with potassium chloride concentration of not less than 0.8 wt %)” in assay [1] (setting [8]); “+ (intensity of the same level as potassium chloride aqueous solution with potassium chloride concentration of not less than 0.75 wt % and less than 0.8 wt %)” in assay [1] (setting [9]); “− (intensity of the same level as potassium chloride aqueous solution with potassium chloride concentration of not less than 0.8 wt %)” in assay [1] (setting [3]); “could be hardly confirmed” in assay [1] (setting [4]).
As to `CC(=O)O` [acetic acid, reference compound], the off-taste suppressing effect result in assay [1] (setting [11]) is “− (intensity of the same level as potassium chloride aqueous solution with potassium chloride concentration of not less than 0.8 wt %)”; in assay [1] (setting [4]) it was “could not be confirmed”. Moreover, in assay [1] (setting [5]), the “intensity of off-tastes” value is on record as “did not show changes”.
For `CCCC(=O)O` [butyric acid], the off-taste suppressing effect entry is “− (intensity of the same level as potassium chloride aqueous solution with potassium chloride concentration of not less than 0.8 wt %)” in assay [1] (setting [3]); “+ (intensity of the same level as potassium chloride aqueous solution with potassium chloride concentration of not less than 0.75 wt % and less than 0.8 wt %)” in assay [1] (setting [10]); “+ (intensity of the same level as potassium chloride aqueous solution with potassium chloride concentration of not less than 0.75 wt % and less than 0.8 wt %)” in assay [1] (setting [11]). In addition, the “intensity of off-tastes” value in assay [1] (setting [5]) was “decreased”.
Regarding `O=CO` [formic acid, reference compound], the off-taste suppressing effect entry in assay [1] (setting [11]) is recorded as “− (intensity of the same level as potassium chloride aqueous solution with potassium chloride concentration of not less than 0.8 wt %)”; in assay [1] (setting [4]) it was “could not be confirmed”. Besides, in assay [1] (setting [5]), the “intensity of off-tastes” value is given as “did not show changes”.
For `CCCCCC(=O)O` [hexanoic acid, reference compound] the same measures were “− (intensity of the same level as potassium chloride aqueous solution with potassium chloride concentration of not less than 0.8 wt %)”, “could not be confirmed” and “did not show changes”.
The like results for `CCCCC(=O)O` [pentanoic acid, reference compound] were, in that order, “− (intensity of the same level as potassium chloride aqueous solution with potassium chloride concentration of not less than 0.8 wt %)”, “could not be confirmed” and “did not show changes”.
